Common to all, as to assay type: biochemical
In one assay the test system is mouse renin. The assay can be described thus: renin inhibition, species specificity (mouse renin). Conditions: stated in words, compared with human renin.
A further assay addresses T1, dog renin (Canis lupus familiaris, UniProt Q6DYE7).
T1 sequence (Q6DYE7 66-403): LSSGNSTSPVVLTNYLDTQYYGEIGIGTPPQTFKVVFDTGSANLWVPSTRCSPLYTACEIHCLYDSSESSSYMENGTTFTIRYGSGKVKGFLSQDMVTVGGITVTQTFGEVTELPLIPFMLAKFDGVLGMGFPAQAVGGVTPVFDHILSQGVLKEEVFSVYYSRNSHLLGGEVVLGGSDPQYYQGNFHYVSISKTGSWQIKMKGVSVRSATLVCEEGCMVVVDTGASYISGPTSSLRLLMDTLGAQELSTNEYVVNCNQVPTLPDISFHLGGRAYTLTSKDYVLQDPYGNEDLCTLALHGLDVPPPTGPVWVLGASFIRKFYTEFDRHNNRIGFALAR
Description: renin inhibition, species specificity (dog renin). Conditions: stated in words, compared with human renin.

In a further assay the target is T2, rat renin (Rattus norvegicus, UniProt P08424).
T2 sequence (P08424 65-402): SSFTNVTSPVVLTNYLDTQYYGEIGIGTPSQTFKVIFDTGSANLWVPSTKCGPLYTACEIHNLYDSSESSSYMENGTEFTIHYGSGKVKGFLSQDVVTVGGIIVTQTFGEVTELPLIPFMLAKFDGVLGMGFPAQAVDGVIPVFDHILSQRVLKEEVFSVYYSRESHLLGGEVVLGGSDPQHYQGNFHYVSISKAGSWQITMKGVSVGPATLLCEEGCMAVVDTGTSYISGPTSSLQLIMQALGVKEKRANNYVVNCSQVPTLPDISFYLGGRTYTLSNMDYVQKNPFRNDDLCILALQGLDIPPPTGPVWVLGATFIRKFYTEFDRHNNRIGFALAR
Description: renin inhibition, species specificity (rat renin). Conditions: relative potency loss against rat renin.

Turning to `COCCCOc1cc(C[C@@H](C[C@H](N)[C@@H](O)C[C@H](C(=O)NCC(C)(C)C(N)=O)C(C)C)C(C)C)ccc1OC` [aliskiren, 2(S),4(S),5(S),7(S)-N-(3-amino-2,2-dimethyl-3-oxopropyl)-2,7-di(1-methylethyl)-4-hydroxy-5-amino-8-[4-methoxy-3-(3-methoxy-propoxy)phenyl]-octanamide], the “potency against mouse renin” value in the assay on mouse renin is “reasonable potency”. Also, the “potency against dog renin” value on dog renin was “reasonable potency”. For the same molecule, the “weaker as a rat renin inhibitor” value at rat renin is on record as 1-2 orders of magnitude.

Source of the values: US20090005361A1, “Combination of Organic Compounds” (priority 2006, published 2009).
